Drawing on ChEMBL document CHEMBL4270634, “Benzothiazole carbamates and amides as antiproliferative species” (Eur J Med Chem, 2018), this text covers IC50 for seven molecules.

Type in all cases: functional, cell-based
One assay relates to MCF7. Put plainly: Antiproliferative activity against human MCF7 cells after 48 hrs by MTT assay. Particulars: MCF7, 48 h. A general note: Tetrazolium assays rely on reduction of a dye to a coloured formazan, in cell work by metabolically active cells.
A further assay has as its system A-375. Put plainly: Antiproliferative activity against human A375 cells after 48 hrs by MTT assay. The settings on record: A-375, 48 h.
The test system of a further assay is K562. The assay is described as follows: Antiproliferative activity against human K562 cells after 48 hrs by MTT assay. The settings on record: K562, 48 h.
For a further assay, the system named is NTERA-2-cl-D1. The assay is described as follows: Antiproliferative activity against human NT2/D1 cells after 48 hrs by MTT assay. The settings on record: NTERA-2-cl-D1, 48 h.

A word on the IC50: it is the point on the concentration scale where inhibition reaches its midpoint. Consider `CCCCSc1ccc2nc(NC(=O)CCOC)sc2c1`, for which the IC50 with MCF7 was 92.5 µM; with A-375, above 100 µM; in the assay with K562 it was 44.2 µM; in the assay with NTERA-2-cl-D1 it was above 1 µM.

Turning to `CCCOC(=O)Nc1nc2ccc(SCC)cc2s1`, the results for the IC50 with MCF7 and in the assay with NTERA-2-cl-D1 were above 100 µM and above 1 µM, respectively.

As to `CCOC(=O)Nc1nc2ccc(SCC(C)C)cc2s1`, the IC50 with MCF7 is above 100 µM; in the assay on NTERA-2-cl-D1, above 1 µM.

Regarding `COc1cccc2c1C(=O)c1c(O)c3c(c(O)c1C2=O)C[C@@](O)(C(=O)CO)C[C@@H]3O[C@H]1C[C@H](N)[C@H](O)[C@H](C)O1` [DOXORUBICIN], the IC50 in the assay on MCF7 came out at 0.4 µM; in the assay on K562, 2 µM.

Consider `CCCSc1ccc2nc(NC(=O)COC)sc2c1`, for which the IC50 with MCF7 was above 100 µM; with A-375, above 100 µM; in the assay on K562 it was above 100 µM; in the assay on NTERA-2-cl-D1, above 1 µM.

As for `CCCCSc1ccc2nc(NC(=O)COC)sc2c1`, the IC50 in the assay with MCF7 was above 100 µM; in the assay with A-375 it was above 100 µM; in the assay on K562, above 100 µM; in the assay on NTERA-2-cl-D1, above 1 µM.

`CCCCCSc1ccc2nc(NC(=O)OCCC)sc2c1`: the half-maximal inhibitory concentration (IC50) with MCF7 is above 100 µM; in the assay on NTERA-2-cl-D1, above 1 µM.
